Measured values from patent US9974784B2, “Inhibitors of activin-like receptor kinases” (The Texas A & M University System, priority 2015, dated 2018).
Values belong to the compound of their own block, whether it stands above or below them.

Key:
ALK2 [1] = biological target: T1, ALK2 (Homo sapiens, UniProt Q04771); assay: screening assay for compounds that bind an allosteric site of ALK2 and destabilize the protein
T1 sequence (Q04771 21-509): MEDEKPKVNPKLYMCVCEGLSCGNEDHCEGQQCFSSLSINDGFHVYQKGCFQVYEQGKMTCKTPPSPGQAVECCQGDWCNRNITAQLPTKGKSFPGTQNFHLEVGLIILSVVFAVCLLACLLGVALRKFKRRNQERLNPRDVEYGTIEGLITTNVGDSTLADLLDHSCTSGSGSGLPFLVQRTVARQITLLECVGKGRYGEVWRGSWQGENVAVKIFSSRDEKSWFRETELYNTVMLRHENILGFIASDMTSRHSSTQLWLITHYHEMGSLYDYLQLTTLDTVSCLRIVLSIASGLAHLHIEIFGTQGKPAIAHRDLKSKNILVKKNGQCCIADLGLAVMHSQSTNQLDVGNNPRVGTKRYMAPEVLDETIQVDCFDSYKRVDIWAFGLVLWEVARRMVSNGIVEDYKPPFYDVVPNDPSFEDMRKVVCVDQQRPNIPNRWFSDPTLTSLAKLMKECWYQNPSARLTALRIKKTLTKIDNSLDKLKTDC
Text: Screening assays were set up to identify compounds that were capable of binding to a specific location in ALK2. This location was a ring-shaped pocket that contains a single centrally located sidechain, that of a histidine in ALK1 and ALK2, and an aspartate in the other five receptor kinases of the family. Numerous compounds were docked in poses that wrap the scaffolds around the central “island” residue, with terminal groups oriented in a head-to-tail fashion. Covalent linkage of the juxtaposed groups to form macrocyclic compounds is likely feasible in many cases. Through reduction in the entropic cost of binding due to constraint of rotatable bonds, as well as other properties, macrocycles have become an attractive scaffold for medicinal chemists in modern drug discovery.
According to a further embodiment of the invention, a screening assay is carried out to identify compounds that bind to an allosteric site of ALK2 and cause destabilization of the protein.

BMP signaling = details: pharmacological inhibition of BMP signaling; cited from earlier work
ALK2 [2] = biological target: T1, ALK2; assay: SDS and native polyacrylamide gel electrophoresis analysis of ALK2 destabilization; details: SDS-PAGE / gel electrophoresis, FIG. 8, increasing concentrations of test compound vs control compound
Method: Destabilizing effects of a compound identified by a method of the claimed invention, were observed by SDS and native polyacrylamide gel electrophoresis analyses (FIG. 8), and were confirmed by monitoring protein unfolding with a hydrophobic fluoroprobe (SYPRO orange) in 96-well plate format with a quantitative PCR instrument (Thermofluor assay). The allosteric inhibitor shifted the melting temperature of Dorsomorphin-stabilized ALK2 from approximately 55° C. down to 35° C. in a concentration dependent manner that correlated with concentration dependent inhibition of ALK2 kinase activity.
The comparative stabilities of the kinase protein were tested at varying pH levels in the presence of compounds identified by the methods of the claimed invention. […] Thermofluor assays provide independent confirmation of the effect of decreasing pH on the stability (FIG. 10) and sensitivity to an allosteric destabilizer (FIG. 11) of the kinase protein. […] Hypoxic conditions typically occur in tissues that are faced with traumas such as those caused by surgery or injury.

Compound: Cc1nc(-c2cccc(S(=O)(=O)N3CCC(C(=O)NCCc4nc5ccccc5[nH]4)CC3)c2)no1 [compound 17, N-[2-(1H-1,3-benzodiazol-2-yl)ethyl]-1-[3-(5-methyl-1,2,4-oxadiazol-3-yl)benzenesulfonyl]piperidine-4-carboxamide]
destabilization of ALK-2 (ALK2 [1]): cause destabilization of ALK-2

Compound: c1ccc2c(-c3cnn4cc(-c5ccc(N6CCNCC6)cc5)cnc34)ccnc2c1 [LDN-193189]
effect on muscle (BMP signaling): leads to muscle wasting or cachexia

Compound: Cc1onc(-c2ccccc2)c1C(=O)NCC1Cc2cccc(-c3ccccn3)c2O1 (centres unmarked) [compound 8, 5-methyl-3-phenyl-N-{[7-(2-pyridinyl)-2,3-dihydro-1-benzofuran-2-yl]methyl}-4-isoxazolecarboxamide]
destabilization of ALK2 receptor kinase (ALK2 [2]): destabilization of ALK2 receptor kinase

Compound: Cc1nc(-c2cccc(S(=O)(=O)N3CCC(C(=O)Nc4cccc5c4CCCC5)CC3)c2)no1 [compound 19, 1-[3-(5-methyl-1,2,4-oxadiazol-3-yl)benzenesulfonyl]-N-(5,6,7,8-tetrahydronaphthalen-1-yl)piperidine-4-carboxamide]
destabilization of ALK-2 (ALK2 [1]): cause destabilization of ALK-2

Compound: Cc1cc(NS(=O)(=O)c2ccc3c(c2)C2C4CCC(C4)C2C(c2cccc(C(=O)O)c2)N3)no1 (centres unmarked) [compound 14, 3-{2-[(5-methyl-1,2-oxazol-3-yl)sulfamoyl]-5,6,6a,7,8,9,10,10a-octahydro-7,10-methanophenanthridin-6-yl}benzoic acid]
destabilization of ALK-2 (ALK2 [1]): cause destabilization of ALK-2

Second part, the compound after the results:

destabilization of ALK-2 (ALK2 [1]): cause destabilization of ALK-2
Compound: Cc1nc(NS(=O)(=O)c2ccc3c(c2)C2C4CCC(C4)C2C(c2cccc(C(=O)O)c2)N3)oc1C (centres unmarked) [compound 24, 3-{2-[(4,5-dimethyl-1,3-oxazol-2-yl)sulfamoyl]-5,6,6a,7,8,9,10,10a-octahydro-7,10-methanophenanthridin-6-yl}benzoic acid]

destabilization of ALK-2 (ALK2 [1]): cause destabilization of ALK-2
Compound: Cc1nc(-c2cccc(N3CC(C(=O)N4CCN(Cc5ccc6c(c5)OCO6)CC4)CC3=O)c2)no1 (centres unmarked) [compound 20, 4-[4-(1,3-benzodioxol-5-ylmethyl)piperazine-1-carbonyl]-1-[3-(5-methyl-1,2,4-oxadiazol-3-yl)phenyl]pyrrolidin-2-one]

destabilization of ALK-2 (ALK2 [1]): cause destabilization of ALK-2
Compound: Cc1cccc(-c2cccc(NC(=O)C3CCCN(C(=O)c4ccnc(N)c4)C3)c2)c1 (centres unmarked) [compound 28, 1-(2-aminoisonicotinoyl)-N-(3′-methyl-3-biphenylyl)-3-piperidinecarboxamide]
